Measured values published in patent publication US10285977B2, “Compositions and methods for treating alopecia” (David Weinstein Consulting, Inc., priority 2015, dated 2019).

How the values were obtained:
[1] = tested on: dermabrasion lesions of dorsal skin; assay: Dermabrasion lesions of dorsal skin of mice treated with RT1061; assay type: in vivo, ICR mice; details: 5 μL of 100 nanomolar topically once daily, 10 days
Method: Retired ICR breeder mice of both sexes with weight between 45 and 50 grams were shaved and rasped to induce dermabrasion lesions. The animals were then randomly assigned (5 per treatment arm) to one of two groups to receive either 5 μL of 100 nanomolar RT1061 or a vehicle control. RT1061 or vehicle control was applied topically to the lesion site once each day including immediately after dermabrasion.

mouse dorsal skin = assay: Punch biopsies of mouse dorsal skin treated topically with RT175; assay type: in vivo, mice
Method: Mice underwent 5 millimeter, full thickness, punch biopsies of their dorsal skin. Mice were then treated topically with 120 nanograms (“ng”) of RT175, daily.

scalp = assay: Scalp closure following craniotomy in rats treated with RT175; assay type: in vivo; details: RT175 treatment
Source text: Rats which had undergone brain surgery to test RT175 mediated regeneration of the brain following stroke. Following surgery, the scalp was closed.

skin lesions = assay: Skin lesions in pig treated topically with RT175; assay type: in vivo; details: single pig, 120 ng topically daily
Method: A single pig underwent bilateral, slit thickness, skin surgery leaving lesions on opposite sides of the pig. One of these lesions was then treated topically with 120 ng of RT175, daily. The other lesion was treated with vehicle only. […] See FIG. 3 and compare 3(b) to 3(a). The de novo hair growth is consistent with the regeneration of the upper hair follicles, most of which would have been removed as the […] sliced through the skin in creating the split thickness wounds.

androgenic alopecia = assay: person with androgenic alopecia treated topically with RT175 and RT175/minoxidil; assay type: in vivo, human; details: 4 months; 120 ng/mL RT175, 1 mL twice daily on crown
Method: The subject went on treatment holiday for 1 month, before beginning treatment with 120 ng/mL of RT175 and 5% w/v minoxidil in 30% w/v ethanol, 50% w/v propylene glycol and 20% w/v water. FIG. 4(c) depicts the subjects scalp before initiation of the second round of treatment.

hair = details: rats after craniotomy prior to neurosurgery; cited from earlier work
hair growth = details: shaved mice; cited from earlier work
[2] = biological target: T1, FK506 binding protein 4 (“FKBP52”) (Homo sapiens, UniProt Q02790); details: cited from earlier work
T1 sequence (Q02790 1-459): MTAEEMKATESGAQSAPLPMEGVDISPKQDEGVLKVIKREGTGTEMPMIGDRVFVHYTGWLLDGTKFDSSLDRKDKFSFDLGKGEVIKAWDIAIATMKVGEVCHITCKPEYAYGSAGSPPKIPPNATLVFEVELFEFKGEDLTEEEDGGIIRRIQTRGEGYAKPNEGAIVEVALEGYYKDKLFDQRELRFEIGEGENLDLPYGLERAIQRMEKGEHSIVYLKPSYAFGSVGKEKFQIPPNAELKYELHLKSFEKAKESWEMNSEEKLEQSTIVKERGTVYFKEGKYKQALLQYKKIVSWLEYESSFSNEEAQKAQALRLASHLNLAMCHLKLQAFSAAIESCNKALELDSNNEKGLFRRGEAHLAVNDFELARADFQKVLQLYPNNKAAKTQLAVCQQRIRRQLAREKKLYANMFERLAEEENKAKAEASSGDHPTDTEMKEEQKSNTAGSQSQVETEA

FKBP52 = biological target: T2, FKBP52 (Homo sapiens, UniProt Q02790); details: fibroblasts treated for 2 hours; cited from earlier work
T2 construct: endogenous in cells
T2 sequence (Q02790 1-459): T1 sequence (Q02790 1-459)

androgenetic alopecia = details: at 6-months, cited from earlier work

For `CCC(C)(C)C(=O)C(=O)N1CCCC1Cc1ccccc1` (stereo not shown) [RT1061], the hair growth [1] was “rapid hair growth” and the skin regeneration [1] was “rapid regeneration of rasped skin”.

With `CCC(C)(C)C(=O)C(=O)N1CCC[C@H]1C(=O)O` [RT175] the “healing of the wound site versus vehicle” value (mouse dorsal skin; 5 days after punch biopsy, 120 ng RT175 topically daily) was “clearly accelerated”, the “treated wounds completely closed” value (mouse dorsal skin; 9 days after punch biopsy, 120 ng topically daily) was 80% and the “hair regeneration in the wound” value (mouse dorsal skin; 9 days after punch biopsy, intact follicles even in the middle of the wound) was “robust hair regeneration”. For the same molecule, the “time for the other 20% of treated wounds to close” value (mouse dorsal skin; after day 9, 120 ng topically daily) was at most 18 h, the “scalp closure after brain surgery” value (scalp) was “full scalp closure” and the “hair regeneration in the lesion” value (skin lesions) was “regeneration of hair”. For the same molecule, the “lesion healing versus vehicle-treated lesion” value (skin lesions) was “early and transient appearance of granulation tissue, followed by rapid revascularization, invasion of newly formed skin from wound edges, accelerated repigmentation”, the hair growth (androgenic alopecia) was “absence of hair growth” and the hair regrowth (hair) was “re-grow hair”. For the same molecule, the hair growth (hair growth) was “induce hair growth”, the binding affinity [2] was “high affinity” and the FKBP52 localisation (FKBP52) was “translocation of FKBP52 to the nucleus”.

In the case of `Nc1cc(N2CCCCC2)nc(N)[n+]1[O-]` [minoxidil], the “treated individuals who maintained existing hair with no additional loss” value (androgenetic alopecia) is given as 50% and the “treated individuals with new hair growth” value (androgenetic alopecia; minoxidil treatment) is given as 15%.
